“And” between values parts separate entries of the source, which are not always exact repeats. Equal values may be shown once.
Assay: xn = mol fraction of the nth substance listed

C[N+](C)(C)CCO.[Cl-] + OCC(O)CO
Conditions	viscosity
293.15 K, 100 kPa, x1 = 0.3	519 mPa·s
293.15 K, 100 kPa, x1 = 0.333	561.4 mPa·s
293.15 K, 101.3 kPa, x2 = 0.7	516.1 mPa·s
293.42 K, 101.33 kPa, x2 = 0.8	167.1 mPa·s
293.43 K, 101.33 kPa, x2 = 0.7	267.9 mPa·s
294.19 K, 101.33 kPa, x2 = 0.7	254.1 mPa·s
294.4 K, 101.33 kPa, x2 = 0.8	156.8 mPa·s
295.2 K, 101.33 kPa, x2 = 0.8	148.2 mPa·s
295.27 K, 101.33 kPa, x2 = 0.7	236.6 mPa·s
296.05 K, 101.33 kPa, x2 = 0.8	138.9 mPa·s
296.09 K, 101.33 kPa, x2 = 0.7	222.7 mPa·s
296.85 K, 101.33 kPa, x2 = 0.7	209.9 mPa·s
296.95 K, 101.33 kPa, x2 = 0.8	130 mPa·s
297.09 K, 101 kPa, x1 = 0.333	348.4 mPa·s
297.68 K, 101.33 kPa, x2 = 0.8	123.2 mPa·s
297.78 K, 101.33 kPa, x2 = 0.7	195.3 mPa·s
298.15 K, 100 kPa, x1 = 0.3	368 mPa·s
298.15 K, 100 kPa, x1 = 0.33	348 mPa·s
298.15 K, 100 kPa, x1 = 0.333	259 mPa·s and 386.3 mPa·s
298.15 K, 101 kPa, x1 = 0.167	304 mPa·s
298.15 K, 101 kPa, x1 = 0.2	353.5 mPa·s and 244 mPa·s
298.15 K, 101 kPa, x1 = 0.25	338.7 mPa·s and 261 mPa·s
298.15 K, 101 kPa, x1 = 0.33	318.1 mPa·s
298.15 K, 101 kPa, x1 = 0.333	200 mPa·s and 283.2 mPa·s
298.15 K, 101.33 kPa, x2 = 0.7	301 mPa·s
298.73 K, 101.33 kPa, x2 = 0.7	184.5 mPa·s
298.74 K, 101.33 kPa, x2 = 0.8	115.2 mPa·s
299.46 K, 101.33 kPa, x2 = 0.7	174.9 mPa·s
299.66 K, 101.33 kPa, x2 = 0.8	108.3 mPa·s
300.32 K, 101.33 kPa, x2 = 0.7	163 mPa·s
300.43 K, 101.33 kPa, x2 = 0.8	101.9 mPa·s
301.05 K, 101.33 kPa, x2 = 0.8	96.5 mPa·s
301.22 K, 101.33 kPa, x2 = 0.7	152.2 mPa·s
301.89 K, 101 kPa, x1 = 0.333	263.5 mPa·s
302.07 K, 101.33 kPa, x2 = 0.7	144.8 mPa·s
302.09 K, 101.33 kPa, x2 = 0.8	90.62 mPa·s
303 K, 101 kPa, x1 = 0.3333	428.4 mPa·s
303.03 K, 101.33 kPa, x2 = 0.7	137 mPa·s
303.04 K, 101.33 kPa, x2 = 0.8	85.38 mPa·s
303.15 K, 100 kPa, x1 = 0.33	255.6 mPa·s
303.15 K, 100 kPa, x1 = 0.333	290.9 mPa·s
303.15 K, 101 kPa, x1 = 0.2	259.6 mPa·s
303.15 K, 101 kPa, x1 = 0.25	250.4 mPa·s
303.15 K, 101 kPa, x1 = 0.33	239 mPa·s
303.97 K, 101.33 kPa, x2 = 0.7	128 mPa·s
303.97 K, 101.33 kPa, x2 = 0.8	81.55 mPa·s
304.77 K, 101.33 kPa, x2 = 0.7	121.8 mPa·s
304.87 K, 101.33 kPa, x2 = 0.8	76.53 mPa·s
305.64 K, 101.33 kPa, x2 = 0.7	114.5 mPa·s
305.7 K, 101.33 kPa, x2 = 0.8	72.8 mPa·s
306.52 K, 101.33 kPa, x2 = 0.7	109 mPa·s
306.58 K, 101.33 kPa, x2 = 0.8	69.11 mPa·s
307.07 K, 101 kPa, x1 = 0.333	187 mPa·s
307.4 K, 101.33 kPa, x2 = 0.7	103.9 mPa·s
307.47 K, 101.33 kPa, x2 = 0.8	65.09 mPa·s
308 K, 101 kPa, x1 = 0.3333	312 mPa·s
308.15 K, 100 kPa, x1 = 0.3	198 mPa·s
308.15 K, 100 kPa, x1 = 0.33	190.3 mPa·s
308.15 K, 100 kPa, x1 = 0.333	216.8 mPa·s
308.15 K, 101 kPa, x1 = 0.2	192.5 mPa·s
308.15 K, 101 kPa, x1 = 0.25	187 mPa·s
308.15 K, 101 kPa, x1 = 0.33	181.2 mPa·s
308.15 K, 101.3 kPa, x2 = 0.7	194.5 mPa·s
308.15 K, 101.33 kPa, x2 = 0.7	96.86 mPa·s
308.34 K, 101.33 kPa, x2 = 0.8	61.7 mPa·s
309.15 K, 101.33 kPa, x2 = 0.8	58.96 mPa·s
309.17 K, 101.33 kPa, x2 = 0.7	92 mPa·s
309.94 K, 101.33 kPa, x2 = 0.7	88.35 mPa·s
310 K, 101.33 kPa, x2 = 0.8	56.2 mPa·s
310.82 K, 101.33 kPa, x2 = 0.8	53.22 mPa·s
310.85 K, 101.33 kPa, x2 = 0.7	82.38 mPa·s
311.67 K, 101.33 kPa, x2 = 0.8	50.6 mPa·s
311.74 K, 101.33 kPa, x2 = 0.7	79.15 mPa·s
312.13 K, 101 kPa, x1 = 0.333	144.5 mPa·s
312.62 K, 101.33 kPa, x2 = 0.7	74.77 mPa·s
312.66 K, 101.33 kPa, x2 = 0.8	47.68 mPa·s
313 K, 101 kPa, x1 = 0.3333	222.4 mPa·s
313.15 K, 100 kPa, x1 = 0.3	148 mPa·s
313.15 K, 100 kPa, x1 = 0.33	145.1 mPa·s
313.15 K, 100 kPa, x1 = 0.333	165.7 mPa·s and 161.3 mPa·s
313.15 K, 101 kPa, x1 = 0.167	119 mPa·s
313.15 K, 101 kPa, x1 = 0.2	144.2 mPa·s and 90 mPa·s
313.15 K, 101 kPa, x1 = 0.25	140.9 mPa·s and 93 mPa·s
313.15 K, 101 kPa, x1 = 0.33	138.6 mPa·s
313.15 K, 101 kPa, x1 = 0.333	85 mPa·s
313.4 K, 101.33 kPa, x2 = 0.7	70.27 mPa·s
313.68 K, 101.33 kPa, x2 = 0.8	45.67 mPa·s
314.3 K, 101.33 kPa, x2 = 0.7	67.45 mPa·s
314.49 K, 101.33 kPa, x2 = 0.8	43.42 mPa·s
315.23 K, 101.33 kPa, x2 = 0.8	41.47 mPa·s
315.26 K, 101.33 kPa, x2 = 0.7	64.39 mPa·s
315.79 K, 101.33 kPa, x2 = 0.8	40.01 mPa·s
316.19 K, 101.33 kPa, x2 = 0.7	60.28 mPa·s
316.96 K, 101.33 kPa, x2 = 0.8	38.19 mPa·s
317.25 K, 101.33 kPa, x2 = 0.7	57.92 mPa·s
317.43 K, 101 kPa, x1 = 0.333	110.5 mPa·s
317.78 K, 101.33 kPa, x2 = 0.8	35.41 mPa·s
317.92 K, 101.33 kPa, x2 = 0.7	55.4 mPa·s
318 K, 101 kPa, x1 = 0.3333	159.6 mPa·s
318.15 K, 100 kPa, x1 = 0.3	116 mPa·s
318.15 K, 100 kPa, x1 = 0.333	125.2 mPa·s
318.15 K, 101 kPa, x1 = 0.2	109 mPa·s
318.15 K, 101 kPa, x1 = 0.25	107.2 mPa·s
318.15 K, 101 kPa, x1 = 0.33	106.9 mPa·s
318.15 K, 101 kPa, x1 = 0.333	91 mPa·s
318.15 K, 101.3 kPa, x2 = 0.7	114.4 mPa·s
318.42 K, 101.33 kPa, x2 = 0.8	35.11 mPa·s
318.59 K, 101.33 kPa, x2 = 0.7	53.65 mPa·s
319.37 K, 101.33 kPa, x2 = 0.8	33.09 mPa·s
319.53 K, 101.33 kPa, x2 = 0.7	51.45 mPa·s
320.2 K, 101.33 kPa, x2 = 0.8	31.05 mPa·s
320.45 K, 101.33 kPa, x2 = 0.7	48.65 mPa·s
321.14 K, 101.33 kPa, x2 = 0.8	29.69 mPa·s
321.38 K, 101.33 kPa, x2 = 0.7	46.23 mPa·s
322.2 K, 101.33 kPa, x2 = 0.7	44.48 mPa·s
322.23 K, 101 kPa, x1 = 0.333	93.48 mPa·s
323 K, 101 kPa, x1 = 0.3333	123.5 mPa·s
323.02 K, 101.33 kPa, x2 = 0.7	42.72 mPa·s
323.15 K, 100 kPa, x1 = 0.3	89.7 mPa·s
323.15 K, 100 kPa, x1 = 0.33	88.7 mPa·s
323.15 K, 100 kPa, x1 = 0.333	98.89 mPa·s
323.15 K, 101 kPa, x1 = 0.2	83.04 mPa·s
323.15 K, 101 kPa, x1 = 0.25	82.18 mPa·s
323.15 K, 101 kPa, x1 = 0.33	83.12 mPa·s
323.15 K, 101.3 kPa, x2 = 0.7	88.65 mPa·s

From the CheMixHub viscosity set
